# Measured values reported in the supplement of paper PMC6315032.
# What was measured:
# Experiment in all cases: apparent dissociation constant (pKDapp, Kinobeads competition, Cheng-Prusoff corrected) (-log10 M); higher = tighter binding
# Conditions in all cases: affinity matrix / lysate: Kinobeads, mixed HEK293/K-562/placenta lysate
# PRKCZ = PRKCZ (UniProt Q05513)
# EPHA5 = EPHA5 (UniProt P54756)
# IRAK1 = IRAK1 (UniProt P51617)
# CDC2L5 = CDC2L5 (UniProt Q14004)
# PDIK1L = PDIK1L (UniProt Q8N165)
# CDC7 = CDC7 (UniProt O00311)
# CABC1 = CABC1 (UniProt Q8NI60)
# PCTK2 = PCTK2 (UniProt Q00537)
# ULK3 = ULK3 (UniProt Q6PHR2)
# CRKRS = CRKRS (UniProt Q9NYV4)
# TYRO3 = TYRO3 (UniProt Q06418)
# FRK = FRK (UniProt P42685)
# PIP5K3 = PIP5K3 (UniProt Q9Y2I7)
# CSK = CSK (UniProt P41240)
# ACVR1 = ACVR1 (UniProt Q04771)
# PRKD3 = PRKD3 (UniProt O94806)
# TEK = TEK (UniProt Q02763)
# MAP3K4 = MAP3K4 (UniProt Q9Y6R4)
# IGF1R = IGF1R (UniProt P08069)
# PRKCA = PRKCA (UniProt P17252)
# PLK1 = PLK1 (UniProt P53350)
# MAST3 = MAST3 (UniProt O60307)
# RPS6KA1 = RPS6KA1 (UniProt Q15418)
# EPHA7 = EPHA7 (UniProt Q15375)
# MAP2K6 = MAP2K6 (UniProt P52564)
# TP53RK = TP53RK (UniProt Q96S44)
# AURKB = AURKB (UniProt Q96GD4)
# IKBKB = IKBKB (UniProt O14920)
# TNK2 = TNK2 (UniProt Q07912)
# RPS6KB1 = RPS6KB1 (UniProt P23443)
# MELK = MELK (UniProt Q14680)
# ACVR2B = ACVR2B (UniProt Q13705)
# CSNK1E = CSNK1E (UniProt P49674)
# NEK1 = NEK1 (UniProt Q96PY6)
# Chain of PRKD3 (O94806 whole entry): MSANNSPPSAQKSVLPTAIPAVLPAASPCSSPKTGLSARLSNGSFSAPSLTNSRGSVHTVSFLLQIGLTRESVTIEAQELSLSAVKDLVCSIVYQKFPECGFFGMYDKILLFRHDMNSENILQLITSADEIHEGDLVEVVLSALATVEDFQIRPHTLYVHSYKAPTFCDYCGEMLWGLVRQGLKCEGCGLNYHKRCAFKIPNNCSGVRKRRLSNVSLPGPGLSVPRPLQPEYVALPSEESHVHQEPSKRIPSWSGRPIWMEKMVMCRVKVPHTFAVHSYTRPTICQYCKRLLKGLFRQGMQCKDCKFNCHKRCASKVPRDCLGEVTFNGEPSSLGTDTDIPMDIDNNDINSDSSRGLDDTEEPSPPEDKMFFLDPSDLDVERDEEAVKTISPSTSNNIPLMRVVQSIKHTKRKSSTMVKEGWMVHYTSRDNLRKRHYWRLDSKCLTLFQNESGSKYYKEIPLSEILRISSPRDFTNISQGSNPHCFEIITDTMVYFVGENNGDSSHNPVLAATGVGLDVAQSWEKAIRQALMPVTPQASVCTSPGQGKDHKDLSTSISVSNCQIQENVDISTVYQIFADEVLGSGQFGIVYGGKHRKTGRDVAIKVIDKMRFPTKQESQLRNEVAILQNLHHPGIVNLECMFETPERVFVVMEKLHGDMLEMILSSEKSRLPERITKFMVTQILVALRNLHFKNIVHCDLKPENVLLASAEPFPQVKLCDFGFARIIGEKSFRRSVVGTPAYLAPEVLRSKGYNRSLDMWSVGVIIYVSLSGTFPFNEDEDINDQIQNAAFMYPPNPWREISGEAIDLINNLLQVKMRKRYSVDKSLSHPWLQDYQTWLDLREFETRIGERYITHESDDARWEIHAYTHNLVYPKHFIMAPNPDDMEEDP
# Chain of IGF1R (P08069 whole entry, looked up): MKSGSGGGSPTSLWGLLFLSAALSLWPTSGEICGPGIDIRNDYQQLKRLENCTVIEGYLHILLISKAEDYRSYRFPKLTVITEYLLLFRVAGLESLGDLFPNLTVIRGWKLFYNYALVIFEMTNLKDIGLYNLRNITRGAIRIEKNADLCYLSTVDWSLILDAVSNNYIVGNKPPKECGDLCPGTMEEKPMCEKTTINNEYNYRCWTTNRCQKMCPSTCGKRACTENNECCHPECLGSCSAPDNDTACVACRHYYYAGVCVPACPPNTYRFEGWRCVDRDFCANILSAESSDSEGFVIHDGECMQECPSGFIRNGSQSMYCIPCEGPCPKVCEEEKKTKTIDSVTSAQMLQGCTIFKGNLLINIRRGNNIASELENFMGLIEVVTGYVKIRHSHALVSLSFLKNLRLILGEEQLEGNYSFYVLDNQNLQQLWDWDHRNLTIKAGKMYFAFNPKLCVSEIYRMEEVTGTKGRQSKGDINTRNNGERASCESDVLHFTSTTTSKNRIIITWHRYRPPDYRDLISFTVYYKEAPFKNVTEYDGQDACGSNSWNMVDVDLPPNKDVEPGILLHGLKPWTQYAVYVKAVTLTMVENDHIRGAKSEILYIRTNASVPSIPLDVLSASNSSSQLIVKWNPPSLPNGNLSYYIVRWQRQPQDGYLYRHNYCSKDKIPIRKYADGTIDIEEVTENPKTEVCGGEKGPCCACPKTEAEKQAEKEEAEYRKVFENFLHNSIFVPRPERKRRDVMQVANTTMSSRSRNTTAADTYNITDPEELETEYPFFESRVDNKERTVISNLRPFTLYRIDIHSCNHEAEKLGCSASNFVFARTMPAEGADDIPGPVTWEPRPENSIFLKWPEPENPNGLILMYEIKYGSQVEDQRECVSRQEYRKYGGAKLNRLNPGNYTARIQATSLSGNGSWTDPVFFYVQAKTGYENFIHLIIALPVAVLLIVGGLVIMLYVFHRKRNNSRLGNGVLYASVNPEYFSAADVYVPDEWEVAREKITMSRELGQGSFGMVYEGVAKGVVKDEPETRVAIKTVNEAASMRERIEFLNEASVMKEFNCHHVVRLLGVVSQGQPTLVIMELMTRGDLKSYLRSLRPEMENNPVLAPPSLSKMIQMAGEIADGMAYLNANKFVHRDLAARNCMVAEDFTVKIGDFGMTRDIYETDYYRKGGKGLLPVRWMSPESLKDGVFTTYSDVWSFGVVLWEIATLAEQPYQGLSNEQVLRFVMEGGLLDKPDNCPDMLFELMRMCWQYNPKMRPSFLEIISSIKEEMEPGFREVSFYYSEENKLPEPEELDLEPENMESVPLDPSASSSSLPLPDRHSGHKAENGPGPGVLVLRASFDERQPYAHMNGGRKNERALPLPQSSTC
# Chain of FRK (P42685 whole entry): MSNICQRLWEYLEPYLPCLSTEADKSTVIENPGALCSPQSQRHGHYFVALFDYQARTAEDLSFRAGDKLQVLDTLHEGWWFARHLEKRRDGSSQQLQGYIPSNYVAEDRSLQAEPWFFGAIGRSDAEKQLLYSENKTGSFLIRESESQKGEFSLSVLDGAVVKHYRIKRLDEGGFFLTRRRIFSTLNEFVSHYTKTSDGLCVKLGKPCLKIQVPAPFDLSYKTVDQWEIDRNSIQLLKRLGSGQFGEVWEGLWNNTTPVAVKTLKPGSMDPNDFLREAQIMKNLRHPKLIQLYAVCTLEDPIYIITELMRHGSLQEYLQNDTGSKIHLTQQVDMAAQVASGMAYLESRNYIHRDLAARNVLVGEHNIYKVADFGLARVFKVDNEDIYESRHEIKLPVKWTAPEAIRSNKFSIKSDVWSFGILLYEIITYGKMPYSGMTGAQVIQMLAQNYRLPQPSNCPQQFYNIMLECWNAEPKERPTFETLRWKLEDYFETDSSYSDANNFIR
# Chain of IKBKB (O14920 whole entry): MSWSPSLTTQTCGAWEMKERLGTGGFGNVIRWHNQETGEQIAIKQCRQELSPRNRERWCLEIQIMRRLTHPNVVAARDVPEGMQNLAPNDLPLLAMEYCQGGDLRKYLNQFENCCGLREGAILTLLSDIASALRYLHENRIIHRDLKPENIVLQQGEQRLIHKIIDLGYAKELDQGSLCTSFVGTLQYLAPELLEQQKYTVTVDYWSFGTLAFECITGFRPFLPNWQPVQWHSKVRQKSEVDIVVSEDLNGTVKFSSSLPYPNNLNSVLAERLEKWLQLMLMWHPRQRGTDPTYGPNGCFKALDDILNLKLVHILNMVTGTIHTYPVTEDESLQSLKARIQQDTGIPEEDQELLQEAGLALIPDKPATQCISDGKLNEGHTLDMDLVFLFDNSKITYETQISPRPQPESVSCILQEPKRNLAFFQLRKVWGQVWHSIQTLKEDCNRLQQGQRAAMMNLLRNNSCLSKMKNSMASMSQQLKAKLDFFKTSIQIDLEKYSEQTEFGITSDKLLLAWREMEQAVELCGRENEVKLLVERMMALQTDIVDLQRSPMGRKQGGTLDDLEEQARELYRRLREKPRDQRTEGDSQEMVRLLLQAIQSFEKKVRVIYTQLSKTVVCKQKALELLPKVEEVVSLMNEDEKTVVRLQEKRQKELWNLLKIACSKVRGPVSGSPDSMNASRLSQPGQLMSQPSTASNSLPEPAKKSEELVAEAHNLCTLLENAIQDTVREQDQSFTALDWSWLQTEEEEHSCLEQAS
# Chain of MELK (Q14680 whole entry, looked up): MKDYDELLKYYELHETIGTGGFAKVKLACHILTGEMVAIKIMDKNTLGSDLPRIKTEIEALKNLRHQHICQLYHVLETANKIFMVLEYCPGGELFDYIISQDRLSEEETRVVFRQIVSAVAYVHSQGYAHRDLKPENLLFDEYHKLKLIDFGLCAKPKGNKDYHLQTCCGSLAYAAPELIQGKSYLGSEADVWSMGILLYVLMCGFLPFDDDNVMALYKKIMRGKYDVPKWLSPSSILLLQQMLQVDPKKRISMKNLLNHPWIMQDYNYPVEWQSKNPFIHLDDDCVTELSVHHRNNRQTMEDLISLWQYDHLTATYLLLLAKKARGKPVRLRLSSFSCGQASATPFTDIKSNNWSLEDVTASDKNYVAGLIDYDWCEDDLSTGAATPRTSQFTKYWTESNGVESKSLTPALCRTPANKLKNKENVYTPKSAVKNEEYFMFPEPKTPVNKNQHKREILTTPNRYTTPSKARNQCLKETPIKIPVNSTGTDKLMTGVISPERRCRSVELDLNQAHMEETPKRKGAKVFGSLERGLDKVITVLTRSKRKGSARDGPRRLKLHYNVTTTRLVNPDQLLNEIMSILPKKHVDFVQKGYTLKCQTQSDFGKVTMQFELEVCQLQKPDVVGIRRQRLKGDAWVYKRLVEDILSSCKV
# Chain of RPS6KA1 (Q15418 whole entry): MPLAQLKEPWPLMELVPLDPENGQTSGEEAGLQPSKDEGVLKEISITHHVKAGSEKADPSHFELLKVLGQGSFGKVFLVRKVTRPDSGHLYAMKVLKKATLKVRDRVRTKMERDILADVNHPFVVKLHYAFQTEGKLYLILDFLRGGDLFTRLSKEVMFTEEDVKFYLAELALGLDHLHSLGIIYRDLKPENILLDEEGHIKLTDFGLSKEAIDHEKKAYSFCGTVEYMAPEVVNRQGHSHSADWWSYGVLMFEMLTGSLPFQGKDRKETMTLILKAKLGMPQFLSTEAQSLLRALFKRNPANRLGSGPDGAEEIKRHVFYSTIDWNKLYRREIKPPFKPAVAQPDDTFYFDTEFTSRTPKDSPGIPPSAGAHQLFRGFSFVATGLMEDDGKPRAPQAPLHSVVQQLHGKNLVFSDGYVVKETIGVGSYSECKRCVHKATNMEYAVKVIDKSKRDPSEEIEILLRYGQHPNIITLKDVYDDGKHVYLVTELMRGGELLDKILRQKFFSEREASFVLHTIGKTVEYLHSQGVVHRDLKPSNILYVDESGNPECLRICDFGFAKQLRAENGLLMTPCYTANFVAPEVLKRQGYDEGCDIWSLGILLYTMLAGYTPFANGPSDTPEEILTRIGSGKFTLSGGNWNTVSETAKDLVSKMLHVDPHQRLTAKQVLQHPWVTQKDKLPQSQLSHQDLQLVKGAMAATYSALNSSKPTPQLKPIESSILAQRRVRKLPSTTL
apparent dissociation constant (-log10 M) (PRKCZ),apparent dissociation constant (-log10 M) (EPHA5),apparent dissociation constant (-log10 M) (IRAK1),apparent dissociation constant (-log10 M) (CDC2L5),apparent dissociation constant (-log10 M) (PDIK1L),apparent dissociation constant (-log10 M) (CDC7),apparent dissociation constant (-log10 M) (CABC1),apparent dissociation constant (-log10 M) (PCTK2),apparent dissociation constant (-log10 M) (ULK3),apparent dissociation constant (-log10 M) (CRKRS),apparent dissociation constant (-log10 M) (TYRO3),apparent dissociation constant (-log10 M) (FRK),apparent dissociation constant (-log10 M) (PIP5K3),apparent dissociation constant (-log10 M) (CSK),apparent dissociation constant (-log10 M) (ACVR1),apparent dissociation constant (-log10 M) (PRKD3),apparent dissociation constant (-log10 M) (TEK),apparent dissociation constant (-log10 M) (MAP3K4),apparent dissociation constant (-log10 M) (IGF1R),apparent dissociation constant (-log10 M) (PRKCA),apparent dissociation constant (-log10 M) (PLK1),apparent dissociation constant (-log10 M) (MAST3),apparent dissociation constant (-log10 M) (RPS6KA1),apparent dissociation constant (-log10 M) (EPHA7),apparent dissociation constant (-log10 M) (MAP2K6),apparent dissociation constant (-log10 M) (TP53RK),apparent dissociation constant (-log10 M) (AURKB),apparent dissociation constant (-log10 M) (IKBKB),apparent dissociation constant (-log10 M) (TNK2),apparent dissociation constant (-log10 M) (RPS6KB1),apparent dissociation constant (-log10 M) (MELK),apparent dissociation constant (-log10 M) (ACVR2B),apparent dissociation constant (-log10 M) (CSNK1E),apparent dissociation constant (-log10 M) (NEK1),SMILES
< 6,< 6,< 6,< 6,< 6,< 6,< 6,< 6,< 6,< 6,< 6,< 6,< 6,< 6,< 6,< 6,< 6,< 6,< 6,< 6,< 6,< 6,< 6,< 6,< 6,< 6,< 6,< 6,< 6,< 6,< 6,< 6,< 6,< 6,CCNC(=O)Nc1ccc(-c2nc(N3CCOC[C@@H]3C)c3c(n2)C(C)(C)S(=O)(=O)C3)cc1 [CZ415]
< 6,< 6,< 6,< 6,< 6,< 6,< 6,< 6,< 6,< 6,< 6,< 6,< 6,< 6,< 6,< 6,< 6,< 6,< 6,< 6,< 6,< 6,< 6,< 6,< 6,< 6,< 6,< 6,< 6,< 6,< 6,< 6,< 6,< 6,COc1ccc(-c2ccc3c(N4CCOC[C@@H]4C)nc(N4CCOC[C@@H]4C)nc3n2)cc1CO [AZD8055]
